# Where two headings read alike, the source gives them in different places.
# Tests used:
# [1] = Pharmacokinetics after single intravenous and oral administration; type: in vivo, male Wistar Han rats
# Protocol: Pharmacokinetics of DF2755A, dissolved in saline solution (NaCl 0.9% w/v), was investigated after single intravenous and oral administrations in male Wistar Han rats. DF2755A was given as a single dose in three animals/group by intravenous (bolus) and oral (by gavage) administrations at a dose of 20 mg/kg. Pharmacokinetic evaluation was carried out on blood samples collected on day 1 at six time points from three animals/group (serial sampling).
# [2] = target: Nav1.7 (Homo sapiens, UniProt Q15858); assay: Ion channel assay, agonist and antagonist mode; type: biochemical; conditions: up to 100 μM (maximum tested concentration)
# Chain of Nav1.7 (Q15858 whole entry): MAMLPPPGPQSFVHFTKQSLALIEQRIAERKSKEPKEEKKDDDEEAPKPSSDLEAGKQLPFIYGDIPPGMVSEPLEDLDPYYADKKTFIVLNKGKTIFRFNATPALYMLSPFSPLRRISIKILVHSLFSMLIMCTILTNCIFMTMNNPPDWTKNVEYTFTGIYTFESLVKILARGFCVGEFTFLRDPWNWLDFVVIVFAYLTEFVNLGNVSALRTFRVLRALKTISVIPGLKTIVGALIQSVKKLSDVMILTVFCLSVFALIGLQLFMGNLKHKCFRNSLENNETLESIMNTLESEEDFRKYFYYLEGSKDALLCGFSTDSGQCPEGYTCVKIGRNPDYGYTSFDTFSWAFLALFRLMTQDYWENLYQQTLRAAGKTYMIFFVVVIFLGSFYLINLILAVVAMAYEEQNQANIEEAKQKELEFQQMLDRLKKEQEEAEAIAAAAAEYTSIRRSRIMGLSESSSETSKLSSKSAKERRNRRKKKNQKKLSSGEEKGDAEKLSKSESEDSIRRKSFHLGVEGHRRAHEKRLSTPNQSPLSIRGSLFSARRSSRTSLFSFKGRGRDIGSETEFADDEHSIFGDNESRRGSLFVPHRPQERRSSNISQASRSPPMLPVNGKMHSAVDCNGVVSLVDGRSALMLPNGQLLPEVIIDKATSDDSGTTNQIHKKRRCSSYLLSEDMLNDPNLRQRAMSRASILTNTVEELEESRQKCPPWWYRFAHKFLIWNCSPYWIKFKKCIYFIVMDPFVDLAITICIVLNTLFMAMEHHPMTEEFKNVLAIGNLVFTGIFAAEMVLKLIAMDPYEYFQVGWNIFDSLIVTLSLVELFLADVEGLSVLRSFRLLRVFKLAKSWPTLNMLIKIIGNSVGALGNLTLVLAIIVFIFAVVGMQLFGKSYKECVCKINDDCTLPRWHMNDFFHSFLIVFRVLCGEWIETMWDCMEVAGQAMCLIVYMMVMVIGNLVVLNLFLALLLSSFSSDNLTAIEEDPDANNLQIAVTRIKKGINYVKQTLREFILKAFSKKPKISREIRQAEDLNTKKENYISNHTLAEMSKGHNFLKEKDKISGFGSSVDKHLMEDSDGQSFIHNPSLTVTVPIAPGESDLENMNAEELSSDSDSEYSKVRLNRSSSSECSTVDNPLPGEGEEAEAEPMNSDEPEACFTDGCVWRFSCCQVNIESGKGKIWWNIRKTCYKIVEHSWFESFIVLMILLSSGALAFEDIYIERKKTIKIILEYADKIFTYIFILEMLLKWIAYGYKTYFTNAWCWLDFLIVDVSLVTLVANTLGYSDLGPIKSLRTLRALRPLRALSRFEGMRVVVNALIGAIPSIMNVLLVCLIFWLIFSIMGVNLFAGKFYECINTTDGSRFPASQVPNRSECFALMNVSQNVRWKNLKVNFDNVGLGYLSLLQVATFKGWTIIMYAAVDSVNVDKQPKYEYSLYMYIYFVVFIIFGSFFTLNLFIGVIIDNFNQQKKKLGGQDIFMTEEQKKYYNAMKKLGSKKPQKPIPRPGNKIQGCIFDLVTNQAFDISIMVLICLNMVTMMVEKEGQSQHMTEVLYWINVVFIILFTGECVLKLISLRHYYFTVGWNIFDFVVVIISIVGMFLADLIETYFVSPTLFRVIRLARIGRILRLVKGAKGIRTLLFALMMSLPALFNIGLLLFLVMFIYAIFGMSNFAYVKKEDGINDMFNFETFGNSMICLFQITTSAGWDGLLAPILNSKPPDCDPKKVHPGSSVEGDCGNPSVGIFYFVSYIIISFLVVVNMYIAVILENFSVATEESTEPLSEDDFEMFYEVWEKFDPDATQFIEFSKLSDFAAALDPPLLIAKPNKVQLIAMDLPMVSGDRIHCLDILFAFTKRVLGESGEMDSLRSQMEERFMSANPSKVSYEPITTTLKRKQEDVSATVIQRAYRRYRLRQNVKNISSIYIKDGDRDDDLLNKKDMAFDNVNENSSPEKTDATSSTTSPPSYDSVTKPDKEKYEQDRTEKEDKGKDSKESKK
# Protocol: (§1) In addition, DF2755A was tested on TRPM8, TRPV1, TRPV4, TRPA1, and Nav1.7 ion channels in agonist and antagonist mode at eight concentrations in quadruplicate (100 μM was the highest tested concentration).
# [3] = target: TRPA1 (Homo sapiens, UniProt O75762); assay: Ion channel assay, agonist and antagonist mode; type: biochemical; conditions: up to 100 μM (maximum tested concentration)
# Chain of TRPA1 (O75762 whole entry, species assumed): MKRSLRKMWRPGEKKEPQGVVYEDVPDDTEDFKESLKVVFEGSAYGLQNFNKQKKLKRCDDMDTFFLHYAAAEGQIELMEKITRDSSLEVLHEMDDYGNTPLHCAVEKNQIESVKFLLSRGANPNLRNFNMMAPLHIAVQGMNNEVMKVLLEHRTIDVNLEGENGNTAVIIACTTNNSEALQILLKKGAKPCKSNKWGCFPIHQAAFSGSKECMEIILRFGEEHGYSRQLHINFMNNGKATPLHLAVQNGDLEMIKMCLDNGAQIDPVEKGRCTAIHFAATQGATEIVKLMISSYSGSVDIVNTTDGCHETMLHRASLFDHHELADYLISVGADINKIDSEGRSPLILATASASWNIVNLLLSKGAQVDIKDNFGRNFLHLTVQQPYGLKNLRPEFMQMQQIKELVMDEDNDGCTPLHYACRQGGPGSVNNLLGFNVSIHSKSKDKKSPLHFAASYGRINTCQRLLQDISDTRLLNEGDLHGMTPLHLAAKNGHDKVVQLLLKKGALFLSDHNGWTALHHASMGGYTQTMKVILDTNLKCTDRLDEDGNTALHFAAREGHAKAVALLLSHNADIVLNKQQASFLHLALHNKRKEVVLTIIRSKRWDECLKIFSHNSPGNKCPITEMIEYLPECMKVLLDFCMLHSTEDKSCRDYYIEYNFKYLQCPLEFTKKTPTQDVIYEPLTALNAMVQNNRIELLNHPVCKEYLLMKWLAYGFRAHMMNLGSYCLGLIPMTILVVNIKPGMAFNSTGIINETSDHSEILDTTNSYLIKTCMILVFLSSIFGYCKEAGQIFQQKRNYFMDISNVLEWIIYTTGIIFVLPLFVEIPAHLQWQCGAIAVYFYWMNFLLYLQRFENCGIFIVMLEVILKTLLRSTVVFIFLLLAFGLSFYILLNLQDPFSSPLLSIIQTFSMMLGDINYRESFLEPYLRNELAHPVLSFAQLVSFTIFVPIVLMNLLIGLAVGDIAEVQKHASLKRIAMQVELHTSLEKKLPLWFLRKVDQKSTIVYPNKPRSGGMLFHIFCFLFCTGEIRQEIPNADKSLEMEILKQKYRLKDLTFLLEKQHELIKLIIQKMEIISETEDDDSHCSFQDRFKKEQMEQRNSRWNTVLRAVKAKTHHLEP
# Protocol: as §1
# [4] = target: TRPM8 (Homo sapiens, UniProt Q7Z2W7); assay: Ion channel assay, agonist and antagonist mode; type: biochemical; conditions: up to 100 μM (maximum tested concentration)
# Chain of TRPM8 (Q7Z2W7 whole entry, species assumed): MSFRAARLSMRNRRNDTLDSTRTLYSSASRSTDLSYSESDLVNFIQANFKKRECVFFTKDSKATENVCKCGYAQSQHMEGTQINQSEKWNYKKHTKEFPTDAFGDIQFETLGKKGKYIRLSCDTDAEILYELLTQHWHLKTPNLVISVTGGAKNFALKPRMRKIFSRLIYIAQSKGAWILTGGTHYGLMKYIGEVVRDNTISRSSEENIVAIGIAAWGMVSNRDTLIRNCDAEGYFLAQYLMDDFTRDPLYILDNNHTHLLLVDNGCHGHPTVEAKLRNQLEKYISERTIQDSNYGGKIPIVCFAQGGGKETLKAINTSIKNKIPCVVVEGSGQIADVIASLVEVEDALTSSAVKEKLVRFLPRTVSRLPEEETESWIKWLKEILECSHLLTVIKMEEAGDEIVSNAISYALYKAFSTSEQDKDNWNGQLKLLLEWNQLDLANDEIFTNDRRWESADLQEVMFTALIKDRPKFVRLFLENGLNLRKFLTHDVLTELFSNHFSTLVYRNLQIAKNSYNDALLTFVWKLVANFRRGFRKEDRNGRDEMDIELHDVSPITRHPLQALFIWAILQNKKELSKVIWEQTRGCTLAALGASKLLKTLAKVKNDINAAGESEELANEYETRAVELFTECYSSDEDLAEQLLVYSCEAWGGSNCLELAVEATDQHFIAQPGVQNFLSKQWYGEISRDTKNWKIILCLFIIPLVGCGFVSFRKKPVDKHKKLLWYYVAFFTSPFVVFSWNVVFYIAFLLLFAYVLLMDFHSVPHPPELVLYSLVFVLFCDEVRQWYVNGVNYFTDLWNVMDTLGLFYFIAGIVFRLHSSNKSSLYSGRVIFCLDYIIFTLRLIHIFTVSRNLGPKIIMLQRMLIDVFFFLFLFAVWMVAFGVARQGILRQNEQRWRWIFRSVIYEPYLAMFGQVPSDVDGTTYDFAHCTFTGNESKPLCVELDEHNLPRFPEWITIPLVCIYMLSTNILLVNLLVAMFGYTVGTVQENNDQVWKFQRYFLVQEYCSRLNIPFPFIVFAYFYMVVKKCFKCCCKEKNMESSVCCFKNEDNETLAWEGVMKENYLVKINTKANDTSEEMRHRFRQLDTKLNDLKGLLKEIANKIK
# Protocol: as §1
# [5] = target: TRPV1 (Homo sapiens, UniProt Q8NER1); assay: Ion channel assay, agonist and antagonist mode; type: biochemical; conditions: up to 100 μM (maximum tested concentration)
# Chain of TRPV1 (Homo sapiens, UniProt Q8NER1) (Q8NER1 whole entry, species assumed): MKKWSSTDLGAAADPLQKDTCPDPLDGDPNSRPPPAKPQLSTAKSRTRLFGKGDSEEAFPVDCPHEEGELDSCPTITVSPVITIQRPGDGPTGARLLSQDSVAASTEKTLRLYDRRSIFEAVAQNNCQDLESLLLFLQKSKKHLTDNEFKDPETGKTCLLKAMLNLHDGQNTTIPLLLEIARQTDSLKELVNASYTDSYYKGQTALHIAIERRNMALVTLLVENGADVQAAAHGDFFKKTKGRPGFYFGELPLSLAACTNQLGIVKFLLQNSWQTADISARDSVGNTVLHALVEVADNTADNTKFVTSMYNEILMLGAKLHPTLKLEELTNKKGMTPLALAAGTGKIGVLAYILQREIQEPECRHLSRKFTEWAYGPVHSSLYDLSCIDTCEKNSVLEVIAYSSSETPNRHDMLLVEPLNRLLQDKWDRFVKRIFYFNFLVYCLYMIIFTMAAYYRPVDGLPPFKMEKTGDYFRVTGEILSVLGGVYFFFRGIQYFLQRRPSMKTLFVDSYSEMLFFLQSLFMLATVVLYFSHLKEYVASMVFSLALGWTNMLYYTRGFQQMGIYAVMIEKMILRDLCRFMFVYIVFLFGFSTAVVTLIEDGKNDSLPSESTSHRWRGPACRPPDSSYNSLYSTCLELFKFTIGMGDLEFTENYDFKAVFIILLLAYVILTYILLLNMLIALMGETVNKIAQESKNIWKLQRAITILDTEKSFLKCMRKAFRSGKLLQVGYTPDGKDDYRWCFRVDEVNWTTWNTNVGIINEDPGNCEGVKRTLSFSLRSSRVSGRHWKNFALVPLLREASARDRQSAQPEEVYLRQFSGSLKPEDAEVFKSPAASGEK
# Protocol: as §1
# [6] = target: TRPV4 (Homo sapiens, UniProt Q9HBA0); assay: Ion channel assay, agonist and antagonist mode; type: biochemical; conditions: up to 100 μM (maximum tested concentration)
# Protocol: as §1
# [7] = Tissue distribution by quantitative whole-body autoradiography; type: in vivo, female SD rats; conditions: at tmax (2 h after dosing), oral 20 mg/kg
# Protocol: Tissue distribution was performed by quantitative whole-body autoradiography (QWBA). At the selected time points (2, 6, 12, 24, 48, 120, and 168 h post-oral administration of the compound), animals (n = 6) were killed using an overdose of carbon dioxide, followed by immediate snap freezing in a hexane/solid carbon dioxide mixture. Each carcass was subjected to WBA using procedures based on the work of [Waddell and Brinkhous (1967)]. Sections were taken at up to six different levels of the rat body to include as many tissues as possible (a minimum of 30). Distribution of radioactivity in the sections was determined and quantified by bioimage analysis.
# [8] = system: urinary bladder; type: in vivo; conditions: preventive: 20 mg kg^−1 + 7 mg kg^−1 twice daily for 7 days; CYP rats
# Protocol: CYP was administered to the animals by the intraperitoneal (i.p.) route (5 ml kg^−1) at the dosage of 75 mg kg^−1 for three times every third day to elicit chronic bladder irritation, as previously described ([Vizzard et al., 1996]).
# (§2) Animals pre-treated with the vehicle or a single high oral dose of DF2755A (20 mg kg^−1; 12 h before the first CYP administration) followed by repeated lower doses administration (7 mg kg^−1 twice daily for 7 days) during IC development were deeply anesthetized with isoflurane (4%) and then killed.
# After killing, rat abdomen was opened through a midline incision, and bladder and proximal urethra were exposed. A catheter was inserted into the bladder through the urethra and a loose ligature was placed around the neck of the urinary bladder. Bladder was inflated with saline via the catheter to slightly distend the bladder and ligature was tightened to maintain proper distension. Bladder was then excised cutting above the insertion point of ureters, and therefore the bladder neck was not included into the bladder sample. Bladders were opened using scissors and, after gross macroscopic evaluation and weighing, each bladder was cut into two equal pieces (named B1 and B2) and weighted again individually. One piece (B1) was placed in Eppendorf, then snap-frozen in liquid nitrogen, and stored at −80°C until quantification using ELISA assay. The second piece (B2) was placed in 10% formalin and stored at room temperature. Then the same samples were placed in 70% ethanol, then processed in paraffin blocks, and then trimmed according to the longitudinal plane to ensure the correct analysis of all the bladder sample. Sections were stained with hematoxylin and eosin (HE), and slides were then digitalized using a Pathscan® Touch scanner in the bright field mode with a ×20 objective. For the microscopic observations of bladder inflammation, the following parameters were analyzed: bladder edema in scores (n = 10/group), bladder hemorrhage in scores (n = 10/group), urothelial loss in scores (n = 10/group), and total inflammatory score, which was calculated by adding all the individual lesion scores (n = 10/group).
# [9] = system: CXCL1/KC; assay: CXCL1 ELISA in bladder tissue; type: in vivo, rat; conditions: preventive: 20 mg kg^−1 + 7 mg kg^−1 twice daily for 7 days, CYP rats
# Protocol: as §2
# After killing, rat abdomen was opened through a midline incision, and bladder and proximal urethra were exposed. A catheter was inserted into the bladder through the urethra and a loose ligature was placed around the neck of the urinary bladder. Bladder was inflated with saline via the catheter to slightly distend the bladder and ligature was tightened to maintain proper distension. Bladder was then excised cutting above the insertion point of ureters, and therefore the bladder neck was not included into the bladder sample. […] One piece (B1) was placed in Eppendorf, then snap-frozen in liquid nitrogen, and stored at −80°C until quantification using ELISA assay. […] For the microscopic observations of bladder inflammation, the following parameters were analyzed: bladder edema in scores (n = 10/group), bladder hemorrhage in scores (n = 10/group), urothelial loss in scores (n = 10/group), and total inflammatory score, which was calculated by adding all the individual lesion scores (n = 10/group). […]
# [10] = system: F11 cells; assay: F11 cell viability (CellTiter AQueous One); type: cell-based; conditions: differentiated F11 cells, 24 h, 0.1 to 5 µM
# Protocol: (§3) For these experiments, cells at 18th passage were used.
# […] Cell viability was determined using the colorimetric method CellTiter AQueous One Solution Cell Proliferation Assay (Promega Corporation, United States), as previously reported ([Brandolini et al., 2017]). The quantity of formed formazan, as a function of viability, was measured at 492 nm using an ELISA plate reader, Infinite F200 (Tecan, Männedorf, Swiss). The results from five independent experiments were expressed as absorbance at 492 nm.
# [11] = system: TRPV1; assay: TRPV1 mRNA expression in F11 cells (RT PCR); type: cell-based; conditions: DF2755A 1 µM + CYP 100 nM
# Excerpt: as §3
# Triplicate samples were run for each gene.
# [12] = intravenous 20 mg kg^−1, male Wistar Han rats
compound,measurement,setting,value
"C[C@H](C(=O)[O-])c1ccc(Nc2nc(C(F)(F)F)cs2)cc1.[Na+] [DF2755A, sodium (2S)-2-(4-{[4-(trifluoromethyl)-1,3-thiazol-2-yl]amino}phenyl)propanoate]",overall systemic exposure (AUC0-t (last)),[1]; [12],"578,017 ng/mlh"
same,systemic clearance,[1]; [12],slow
same,half-life,"[1]; male, Wistar Han, rat, plasma, 20 mg/kg, route not stated, read-out: half-life (converted)",408 min
same,bioavailability,"[1]; rat, plasma, po, 20 mg/kg, male Wistar Han rats, read-out: oral absolute bioavailability (F%)",86.2%
same,C0,"[1]; rat, plasma, intravenous 20 mg kg^−1, male Wistar Han rats, read-out: Plasma concentration at time zero (C0)",117 µg/mL
same,half-life,"[1]; rat, plasma, intravenous 20 mg kg^−1, male Wistar Han rats, read-out: t1/2,z (converted)",486 min
same,Vd,"[1]; rat, plasma, intravenous 20 mg kg^−1, male Wistar Han rats, read-out: volume of distribution at steady state",< 1 L/kg
same,Tmax,"[1]; rat, plasma, oral 20 mg/kg, male Wistar Han rats",2 h
same,Cmax,"[1]; rat, plasma, oral 20 mg/kg, male Wistar Han rats, read-out: maximum plasma concentration (Cmax)",43500 ng/mL
same,AUC(0-t),"[1]; rat, plasma, oral 20 mg/kg, male Wistar Han rats, read-out: overall systemic exposure (AUC0-t (last))",498 µg·h/mL
same,distribution volume,[1]; route not stated,0.35 L/kg
same,activity in agonism and antagonism mode,[2],no activity
same,activity in agonism and antagonism mode,[3],no activity
same,activity in agonism and antagonism mode,[4],no activity
same,activity in agonism and antagonism mode,[5],no activity
same,activity in agonism and antagonism mode,[6],no activity
same,"radioactivity concentration, blood content into the heart",[7],38.3 μg equivalents DF2755A g^−1 of tissue
same,"radioactivity concentration, kidney as a whole",[7],29.6 μg equivalents DF2755 A/g^−1 of tissue
same,"radioactivity concentration, kidney cortex",[7],33.2 μg equivalents DF2755A g^−1 of tissue
same,"radioactivity concentration, liver",[7],41.7 μg equivalents DF2755A g^−1 of tissue
same,"radioactivity concentration, small intestine contents",[7],180 μg equivalents DF2755A g^−1 of tissue
same,"radioactivity concentration, stomach contents",[7],51.8 μg equivalents DF2755A g^−1 of tissue
same,"radioactivity concentration, urinary bladder contents",[7],63.0 μg DF2755A g^−1 of tissue
same,"radioactivity concentration, urinary bladder wall",[7],24.3 μg equivalents DF2755A g^−1 of tissue
same,share of the administered dose in urinary bladder contents,[7],8%
same,share of the administered dose in urinary bladder wall,[7],3%
same,"histological evaluated parameters (edema, hemorrhage, urothelial loss, total inflammatory score), DF2755A- versus vehicle-treated rats",[8],no significant difference
same,bladder tissue expression of CXCL1/KC versus vehicle-treated rats,[9],strongly inhibited
same,neuronal cell viability,[10],did not modulate neuronal cell viability
same,TRPV1 mRNA expression in CYP-exposed cells,[11],restored TRPV1 mRNA expression to control values

# Source: paper PMC9096165 (Frontiers in Pharmacology, 2022)
